Test results taken from patent publication US11667602B2, “Compounds and their use” (AstraZeneca AB, priority 2020, dated 2023).
In brackets after ≈: the same amount, converted by molar mass.

Key:
[1] = Rat Hepatocyte Stability (Test E); format: in vitro ADME; conditions: rat, hepatocytes, geometric mean if run multiple times
Outline: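 Run per the published AstraZeneca-type rat hepatocyte stability protocol (Wernevik et al. panel). Values are mean intrinsic clearance, Clint in μl/min/10^6 cells; geometric mean used for repeated runs.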

[2] = Solubility (Test F); format: physicochemical; conditions: arithmetic mean if run multiple times
Experimental: The assay was conducted according to the Solubility Assay described in pages 164-167 of Wernevik, J. et al., “A Fully Integrated Assay Panel for Early Drug Metabolism and Pharmacokinetics Profiling”, Assay and Drug Development Technologies, 2020, 18(4), 157-179. Data are reported in Table 36 as solubility ([…]. Where the assay was run multiple times for the same compound, the arithmetic mean is reported.

[3] = Human Plasma Protein Binding (Test B); format: in vitro ADME; conditions: fraction unbound (fu)
Outline: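 Human plasma protein binding run per the published Wernevik et al. (2020) integrated DMPK panel protocol. Values are fraction unbound (fu, % free); repeat runs averaged arithmetically.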

[4] = Human Hepatocyte Stability (Test D); format: in vitro ADME; conditions: human, cryopreserved pooled human hepatocytes (LiverPool 10-Donor), geometric mean if run multiple times
Experimental: Human Hepatocyte Stability (Test D)
The metabolic stability of compounds in human hepatocytes was assessed using the following protocol:
1. Prepare 10 mM stock solutions of compound and control compounds in appropriate solvent (DMSO). Place incubation medium (L-15 Medium) in a 37° C. water bath, and allow warming for at least 15 minutes prior to use.
2. Add 80 μL of acetonitrile to each well of the 96-well deep well plate (“Quenching plate”).
3. In a new 96-well plate, dilute the 10 mM test compounds and the control compounds to 100 μM by combining 198 μL of acetonitrile and 2 μL of 10 mM stock solution.
4. Remove a vial of cryopreserved (less than −150° C.) human hepatocytes (LiverPool™ 10-Donor Human hepatocytes obtained from Bioreclamation IVT (Product No. S01205)) from storage, ensuring that vials remain at cryogenic temperatures until thawing process ensues. As quickly as possible, thaw the cells by placing the vial in a 37° C. water bath and gently shaking the vials. Vials should remain in water bath until all ice crystals have dissolved and are no longer visible. After thawing is complete, spray vial with 70% ethanol, transfer the vial to a bio-safety cabinet.
5. Open the vial and pour the contents into the 50 mL conical tube containing thawing medium. Place the 50 mL conical tube into a centrifuge and spin at 100 g for 10 minutes (room temperature).
6. Using Cellometer® Vision, count cells and determine the viable cell density. Cells with poor viability (<80% viability) are not acceptable for use.
7. Transfer 247.5 μL of hepatocytes into each well of a 96-well cell incubation plate. Place the plate on Eppendorf Thermomixer Comfort plate shaker to allow the hepatocytes to warm for 10 minutes.
8. Add 2.5 μL of 100 μM test compound or control compounds into an incubation well containing cells to initiate the reaction.
9. Incubate the plate at 37° C. and 900 rpm on an Eppendorf Thermomixer Comfort plate shaker.
10. Centrifuge the quenching plates for 20 minutes at 4,000 rpm. Transfer 30 μL of supernatant of each compound into a 96-well analysis plate. 4 compounds are pooled together into one cassette. Then dilute the pooled sample by adding of 180 μl of pure water. All incubations are performed in singlicate.
All calculations were carried out using Microsoft Excel. Peak areas were determined from extracted ion chromatograms. In vitro intrinsic clearance (in vitro Clint, in μL/min/10^6 cells) of parent compound was determined by regression analysis of the Ln percent parent disappearance vs. time curve. The in vitro intrinsic clearance (in vitro Clint, in μL/min/10^6 cells) reported in Table 36, and was determined from the slope value using the following equation: in vitro Clint=kV/N
V=incubation volume (0.25 mL);
N=number of hepatocytes per well (0.25×10^6 cells)
Where the assay was run multiple times for the same compound, the geometric mean is reported.

[5] = Human Liver Microsomal Stability (Test C); format: in vitro ADME; conditions: human, liver microsomes
Outline: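 Human liver microsome incubation per the Wernevik et al. integrated DMPK panel protocol. Intrinsic clearance reported as CLint in μl/min/mg protein, averaged arithmetically over repeat runs.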

[6] = target: T1, human RXFP1 (Homo sapiens, UniProt Q9HBX9); experiment: RXFP1 Hu cAMP (Test A); format: cell-based; set-up: expressed in transfected cells; host or cells: Jump-In T-REx CHO-K1 cells (ThermoFisher), induced with 10 ng/ml doxycycline for 24 h; conditions: RXFP1 Hu cAMP; for EC50: read-out: Test A EC50
T1 sequence (Q9HBX9 1-757): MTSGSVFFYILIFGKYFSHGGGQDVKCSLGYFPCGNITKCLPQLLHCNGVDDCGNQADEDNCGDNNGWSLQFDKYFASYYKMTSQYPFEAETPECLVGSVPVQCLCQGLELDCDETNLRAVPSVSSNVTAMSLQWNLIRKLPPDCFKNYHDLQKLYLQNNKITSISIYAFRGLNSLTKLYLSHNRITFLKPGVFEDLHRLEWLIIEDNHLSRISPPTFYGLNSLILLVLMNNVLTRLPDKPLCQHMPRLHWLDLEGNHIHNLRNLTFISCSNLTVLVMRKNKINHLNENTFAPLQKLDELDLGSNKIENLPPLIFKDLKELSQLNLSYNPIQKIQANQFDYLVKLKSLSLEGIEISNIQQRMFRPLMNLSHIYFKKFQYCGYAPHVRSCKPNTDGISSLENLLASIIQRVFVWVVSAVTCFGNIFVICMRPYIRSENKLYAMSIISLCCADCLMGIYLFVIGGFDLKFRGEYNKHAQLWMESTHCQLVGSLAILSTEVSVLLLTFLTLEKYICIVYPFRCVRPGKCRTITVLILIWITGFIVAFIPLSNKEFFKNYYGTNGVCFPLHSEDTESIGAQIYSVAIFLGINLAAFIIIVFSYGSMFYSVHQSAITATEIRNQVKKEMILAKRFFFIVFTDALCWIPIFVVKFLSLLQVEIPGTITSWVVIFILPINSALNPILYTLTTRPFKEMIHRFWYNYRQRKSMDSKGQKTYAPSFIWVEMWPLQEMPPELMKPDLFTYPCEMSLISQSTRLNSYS
Outline: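 Doxycycline-induced (10 ng/ml, 24 h) CHO-K1 cells stably expressing human RXFP1; cAMP read by competitive HTRF after 2 h at room temperature, with 0.5 mM IBMX final.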

Structure (SMILES)	hepatocyte CLint [1]	solubility [2]	Test B Human Plasma Protein Binding (% free) [3]	hepatocyte CLint at 1 µM [4]	microsomal CLint [5]	Test A Sinf [6]	EC50 [6]
COc1cc(C)c(O[C@H]2CC[C@@](C)(C(=O)O)CC2)cc1C(=O)N[C@@H]1[C@H]2CC[C@H](C2)[C@@H]1C(=O)NCC1(C)CCC1 [Example 375]	32 µL/min/1e6 cells	240 µM (≈ 130 µg/mL)	4.4 % free	3.1 µL/min/1e6 cells	38 µL/min/mg		
COc1cc(F)c(-c2ccc(CCC(N)(CO)CO)c(F)c2)cc1C(=O)N[C@@H]1[C@H]2CC[C@H](C2)[C@@H]1C(=O)Nc1cccc(S(=O)(=O)C(F)(F)F)c1 [Example 266, (1R,2S,3R,4S)-3-(4′-(3-Amino-4-hydroxy-3-(hydroxymethyl)butyl)-3′,6-difluoro-4-methoxy-[1,1′-biphenyl]-3-carboxamido)-N-(3-((trifluoromethyl)sulfonyl)phenyl)bicyclo[2.2.1]heptane-2-carboxamide]	8.8 µL/min/1e6 cells		<0.34 % free	9.4 µL/min/1e6 cells	68 µL/min/mg	103%	110 nM
COc1cc(F)c(-c2ccc(C(=O)O)cc2)cc1C(=O)Nc1ccccc1C(=O)Nc1cccc(S(=O)(=O)C(F)(F)F)c1 [Example 328, 2′-Fluoro-4′-methoxy-5′-((2-((3-((trifluoromethyl)sulfonyl)phenyl)carbamoyl)phenyl)carbamoyl)-[1,1′-biphenyl]-4-carboxylic acid]			<0.10 % free	11 µL/min/1e6 cells	< 3 µL/min/mg	117%	190 nM
COc1cc(F)c(O[C@H]2CC[C@@H](C(=O)O)CC2)cc1C(=O)N[C@@H]1[C@H]2CC[C@H](C2)[C@@H]1C(=O)N[C@@H](C)C(C)(C)C [Example 199]	20 µL/min/1e6 cells	1000 µM (≈ 533 µg/mL)		2.6 µL/min/1e6 cells	26 µL/min/mg	100%	21000 nM
COc1cc(F)c(O[C@H]2CC[C@@H](C(=O)O)CC2)cc1C(=O)N[C@@H]1[C@H]2CC[C@H](C2)[C@@H]1C(=O)N[C@H](C)C(C)(C)C [Example 200]	15 µL/min/1e6 cells	55 µM (≈ 29.3 µg/mL)		3.7 µL/min/1e6 cells	32 µL/min/mg	100%	590 nM
COc1cc(F)c(O[C@H]2CC[C@@](C)(C(=O)O)CC2)cc1C(=O)N[C@@H]1CCC[C@@H]1C(=O)Nc1cccc(S(=O)(=O)C(F)(F)F)c1 [Example 351]	46 µL/min/1e6 cells	590 µM (≈ 380 µg/mL)		15 µL/min/1e6 cells	64 µL/min/mg	109%	18 nM
COc1cc(F)c(-c2ccc(C(=O)O)c(O)c2)cc1C(=O)N[C@@H]1[C@H]2CC[C@H](C2)[C@@H]1C(=O)Nc1cccc(S(=O)(=O)C(F)(F)F)c1 [Example 247]	12 µL/min/1e6 cells	190 µM (≈ 124 µg/mL)		9.5 µL/min/1e6 cells	14 µL/min/mg	104%	50 nM
COc1cc(F)c(-c2ccc(-c3nn[nH]n3)cc2)cc1C(=O)N[C@@H]1[C@H]2CC[C@H](C2)[C@@H]1C(=O)Nc1cccc(S(=O)(=O)C(F)(F)F)c1 [Example 325, (1R,2S,3R,4S)-3-(6-Fluoro-4-methoxy-4′-(1H-tetrazol-5-yl)-[1,1′-biphenyl]-3-carboxamido)-N-(3-((trifluoromethyl)sulfonyl)phenyl)bicyclo[2.2.1]heptane-2-carboxamide]		880 µM (≈ 580 µg/mL)	<0.30 % free	5 µL/min/1e6 cells	18 µL/min/mg	109%	120 nM
COc1cc(F)c(O[C@H]2CC[C@@](C)(C(=O)O)CC2)cc1C(=O)N[C@H]1[C@@H]2CC[C@@H](C2)[C@H]1C(=O)Nc1ccc(F)c(S(F)(F)(F)(F)F)c1 [Example 206, (1R,4s)-4-(2-Fluoro-5-(((1R,2S,3R,4S)-3-((4-fluoro-3-(pentafluoro-λ6-sulfaneyl)phenyl)carbamoyl)bicyclo[2.2.1]heptan-2-yl)carbamoyl)-4-methoxyphenoxy)-1-methylcyclohexane-1-carboxylic acid]	14 µL/min/1e6 cells	35 µM (≈ 23.9 µg/mL)		49 µL/min/1e6 cells	42 µL/min/mg	99%	> 150 nM
COc1cc(F)c(-c2cccc(C[C@@H](C(=O)O)N(C)C)c2)cc1C(=O)N[C@@H]1[C@H]2CC[C@H](C2)[C@@H]1C(=O)Nc1cccc(S(=O)(=O)C(F)(F)F)c1 (racemic) [Example 293]	41 µL/min/1e6 cells	21 µM (≈ 14.8 µg/mL)		8.4 µL/min/1e6 cells	27 µL/min/mg	118%	390 nM
COc1cc(F)c(O[C@H]2CC[C@@](C)(C(=O)O)CC2)cc1C(=O)N[C@@H]1CCC[C@@H]1C(=O)Nc1ccc(F)c(S(F)(F)(F)(F)F)c1 [Example 352]	38 µL/min/1e6 cells	340 µM (≈ 223 µg/mL)	0.26 % free	13 µL/min/1e6 cells		105%	3 nM
